Strand notation (5' to 3'): a small letter for the sugar, then the base; units joined by * are phosphorothioate-linked, units joined directly phosphodiester-linked; [ ] holds rarer units or linkages, { } end groups; capitals alone tell only the bases. k = constrained ethyl (cEt); [5mC] = 5-methylcytosine; d = 2'-deoxy (DNA)
Test system: Yap1 mRNA
Test: Antisense inhibition of human Yap1 in A-431 cells by cEt gapmers, single dose (Example 2, RTS4814)
Format: cell-based
Outline: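 A-431 cells (5,000/well) received 2,000 nM oligonucleotide by free uptake for about 48 h. Yap1 mRNA was then quantified by RT-qPCR with primer probe set RTS4814, normalized to RIBOGREEN total RNA, and reported as % of untreated control; asterisked values mark oligos inside the amplicon.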

[1] = Table 21, Yap1 mRNA, percent of untreated control, 3-10-3 cEt gapmers targeting SEQ ID NO.: 1 and 2
[2] = Table 5, A-431 cells, 5,000 cells per well, free uptake, 2,000 nM modified oligonucleotide, approx. 48 hours, RTS4814, normalized to RIBOGREEN, Yap1 mRNA relative to untreated control cells
[3] = A-431 cells, 5,000 cells per well, free uptake, 2,000 nM modified oligonucleotide, approx. 48 hours, RTS4814, normalized to RIBOGREEN, Table 4, asterisk (*) = targets amplicon region of primer probe set
[4] = Table 24, Yap1 mRNA as percent of untreated control, 3-10-3 cEt gapmers targeting SEQ ID NO.: 1, and 2
[5] = Table 25, Yap1 mRNA as percent of untreated control, 3-10-3 cEt gapmers targeting SEQ ID NO.: 1, and 2
[6] = Yap1 mRNA as percent of untreated control, A-431 cells, 3-10-3 cEt gapmers targeting SEQ ID NO.: 1, and 2, Table 31
[7] = Table 32, Yap1 mRNA, percent of untreated control, 3-10-3 cEt gapmers targeting SEQ ID NO.: 1, and 2
[8] = Table 18, A-431 cells, 5,000 cells per well, free uptake, 2,000 nM modified oligonucleotide, approx. 48 hours, RTS4814, normalized to RIBOGREEN, Yap1 mRNA as percent of untreated control
[9] = Table 33, Yap1 mRNA, percent of untreated control, 3-10-3 cEt gapmers targeting SEQ ID NO.: 1, and 2
[10] = Table 20, Yap1 mRNA, percent of untreated control, 3-10-3 cEt gapmers targeting SEQ ID NO.: 1 and 2
[11] = Table 19, A-431 cells, 5,000 cells per well, free uptake, 2,000 nM modified oligonucleotide, approx. 48 hours, RTS4814, normalized to RIBOGREEN, Yap1 mRNA as percent of untreated control
[12] = Table 22, Yap1 mRNA as percent of untreated control, 3-10-3 cEt gapmers, single dose
[13] = Table 6, A-431 cells, 5,000 cells per well, free uptake, 2,000 nM modified oligonucleotide, approx. 48 hours, RTS4814, normalized to RIBOGREEN, Yap1 mRNA relative to untreated control cells
[14] = Table 23, Yap1 mRNA as percent of untreated control, 3-10-3 cEt gapmers, single dose

For “1075527 (kA*kT*kT*dT*dA*dA*dT*dT*dA*dA*dG*dG*dG*k[5mC]*k[5mC]*k[5mC]; antisense) [Compound 1075527]”, the “YAP1 (% UTC)” value [1] was 82 % UTC.
For “716356 (k[5mC]*kG*kA*dG*dG*dT*dG*dG*dA*dG*dA*dA*dG*k[5mC]*kG*kG; antisense) [Compound 716356]”, the “YAP1 (% UTC)” value [2] was 112 % UTC.
In the case of “716484 (k[5mC]*kA*k[5mC]*dT*dT*dT*dT*d[5mC]*d[5mC]*dA*dG*d[5mC]*dT*kA*kA*k[5mC]; antisense) [Compound 716484]”, the “YAP1 (% UTC)” value [3] is reported as 35 % UTC.
With “1074442 (kG*kA*k[5mC]*d[5mC]*dA*dG*dT*dA*dA*dA*dT*d[5mC]*dA*kT*kG*kT; antisense) [Compound 1074442]” the “YAP1 (% UTC)” value [4] was 21 % UTC.
In the case of “1074123 (antisense kG*k[5mC]*kT*dG*d[5mC]*dG*dA*dG*dG*d[5mC]*dA*d[5mC]*dT*k[5mC]*kG*kG) [Compound 1074123]”, the “YAP1 (% UTC)” value [5] is reported as 72 % UTC.
For “1075403 (antisense k[5mC]*kT*kT*dA*dA*dT*d[5mC]*dA*dG*dG*dT*dA*d[5mC]*kT*kA*kT) [Compound 1075403]”, the “YAP1 (% UTC)” value [5] was 18 % UTC.
“1076113 (kT*kG*kA*d[5mC]*dA*dA*dT*dA*dG*d[5mC]*d[5mC]*dA*dA*kT*kG*k[5mC]; antisense) [compound 1076113]” was tested, and the “YAP1 (% UTC)” value [6] was 16 % UTC.
With “1075979 (k[5mC]*kA*kT*dA*dA*dT*d[5mC]*d[5mC]*dA*d[5mC]*dT*dA*dT*kG*k[5mC]*kA; antisense) [Compound 1075979]” the “YAP1 (% UTC)” value [5] was 18 % UTC.
For “1075698 (kG*kT*kT*dT*dA*dA*dT*dA*dA*dT*d[5mC]*d[5mC]*dA*kT*kG*k[5mC]; antisense) [compound 1075698]”, the “YAP1 (% UTC)” value [7] was 10 % UTC.
With “716494 (kA*kA*kG*dG*dG*d[5mC]*dT*dT*dA*dT*dT*d[5mC]*dT*kA*kG*kA; antisense) [Compound 716494]” the “YAP1 (% UTC)” value [2] was 112 % UTC.
With “1075780 (kT*kA*kT*dA*dA*dT*dA*dA*dT*d[5mC]*d[5mC]*dA*dG*kA*kA*k[5mC]; antisense) [Compound 1075780]” the “YAP1 (% UTC)” value [8] was 98 % UTC.
For “1074163 (k[5mC]*kA*kG*dG*d[5mC]*dG*dA*dG*d[5mC]*dG*dA*dG*dG*kG*k[5mC]*kT; antisense) [compound 1074163]”, the “YAP1 (% UTC)” value [9] was 118 % UTC.
For “1075462 (antisense kG*kT*kT*dT*dA*dT*dA*dG*dA*d[5mC]*dA*dA*dG*kT*k[5mC]*kA) [Compound 1075462]”, the “YAP1 (% UTC)” value [10] was 15 % UTC.
“1075494 (antisense kT*k[5mC]*kT*d[5mC]*dA*dA*d[5mC]*dA*dA*dT*dT*dT*dG*k[5mC]*kT*kA) [Compound 1075494]” was tested, and the “YAP1 (% UTC)” value [10] was 47 % UTC.
For “1075652 (kG*kT*kA*dT*dA*dT*dT*dA*d[5mC]*dA*dA*dT*d[5mC]*k[5mC]*k[5mC]*kA; antisense) [Compound 1075652]”, the “YAP1 (% UTC)” value [8] was 40 % UTC.
In the case of “1075883 (kA*k[5mC]*kT*dA*dA*dA*dA*d[5mC]*d[5mC]*dA*dT*dT*dT*kG*k[5mC]*k[5mC]; antisense) [Compound 1075883]”, the “YAP1 (% UTC)” value [5] is reported as 20 % UTC.
For “1075434 (antisense kG*kT*kA*dA*dA*dA*dG*dA*dG*dG*dT*dG*d[5mC]*kA*kT*k[5mC]) [Compound 1075434]”, the “YAP1 (% UTC)” value [4] was 96 % UTC.
With “1075122 (kG*kA*kA*dA*dA*dT*dT*dA*dG*d[5mC]*d[5mC]*dT*dA*k[5mC]*k[5mC]*kA; antisense) [compound 1075122]” the “YAP1 (% UTC)” value [7] was 16 % UTC.
“1075153 (kA*kT*kT*dA*dT*dA*dA*dT*dG*dG*dG*dA*dG*kG*kA*kT; antisense) [compound 1075153]” was tested, and the “YAP1 (% UTC)” value [6] was 38 % UTC.
With “1075877 (k[5mC]*kT*kG*dG*dA*dA*dA*dA*dG*dT*dA*d[5mC]*dA*kT*kT*k[5mC]; antisense) [Compound 1075877]” the “YAP1 (% UTC)” value [11] was 28 % UTC.
With “1074986 (antisense k[5mC]*kT*kA*d[5mC]*dT*dG*dT*dA*dA*dT*d[5mC]*dA*d[5mC]*k[5mC]*kT*kT) [Compound 1074986]” the “YAP1 (% UTC)” value [4] was 78 % UTC.
With “1075816 (kT*kA*kG*dT*dA*dT*dA*dA*dA*dG*d[5mC]*dA*dG*kG*kG*k[5mC]; antisense) [Compound 1075816]” the “YAP1 (% UTC)” value [12] was 7 % UTC.
For “716366 (k[5mC]*kA*kG*dG*dT*d[5mC]*dG*dG*dT*d[5mC]*dT*d[5mC]*d[5mC]*kG*kA*kG; antisense) [Compound 716366]”, the “YAP1 (% UTC)” value [13] was 95 % UTC.
“1074948 (antisense kG*kA*kG*dT*dT*d[5mC]*d[5mC]*dA*dA*dA*dA*d[5mC]*d[5mC]*k[5mC]*kT*kT) [Compound 1074948]” was tested, and the “YAP1 (% UTC)” value [8] was 61 % UTC.
With “1075730 (kG*kT*kA*dT*dT*dT*dA*dA*dA*dA*dA*dT*dA*kG*k[5mC]*kG; antisense) [compound 1075730]” the “YAP1 (% UTC)” value [7] was 92 % UTC.
“1075889 (antisense kA*kT*kT*dA*dA*dA*dA*dG*dT*dA*dG*dG*d[5mC]*k[5mC]*k[5mC]*kT) [compound 1075889]” was tested, and the “YAP1 (% UTC)” value [6] was 71 % UTC.
For “716375 (kG*kA*kG*dA*d[5mC]*dT*dA*d[5mC]*dT*d[5mC]*d[5mC]*dA*dG*kT*kG*kG; antisense) [Compound 716375]”, the “YAP1 (% UTC)” value [13] was 63 % UTC.
“1074763 (kT*kG*k[5mC]*dT*dA*d[5mC]*d[5mC]*d[5mC]*dA*dA*dT*dA*d[5mC]*kA*kA*k[5mC]; antisense) [Compound 1074763]” was tested, and the “YAP1 (% UTC)” value [5] was 25 % UTC.
With “1074194 (antisense k[5mC]*k[5mC]*kG*dG*dG*dT*d[5mC]*d[5mC]*dG*dG*dA*d[5mC]*dG*kG*k[5mC]*kG) [compound 1074194]” the “YAP1 (% UTC)” value [7] was 57 % UTC.
“1074693 (antisense k[5mC]*k[5mC]*k[5mC]*d[5mC]*d[5mC]*d[5mC]*d[5mC]*d[5mC]*dA*dA*dA*d[5mC]*dT*kT*kT*k[5mC]) [Compound 1074693]” was tested, and the “YAP1 (% UTC)” value [11] was 92 % UTC.
In the case of “1074963 (antisense kT*kA*kG*dG*d[5mC]*dA*dA*dG*d[5mC]*dA*dG*d[5mC]*dT*kA*kA*kA) [compound 1074963]”, the “YAP1 (% UTC)” value [9] is reported as 76 % UTC.
In the case of “1076260 (k[5mC]*kT*kT*dA*dA*dT*dT*dT*dA*dA*d[5mC]*dT*d[5mC]*k[5mC]*kT*kG; antisense) [Compound 1076260]”, the “YAP1 (% UTC)” value [8] is reported as 3 % UTC.
With “1075271 (antisense kG*kA*kT*dG*dT*dG*dA*dT*d[5mC]*dT*dG*dT*dG*kA*kG*kA) [Compound 1075271]” the “YAP1 (% UTC)” value [1] was 11 % UTC.
In the case of “1075211 (antisense kA*kA*kT*dA*dA*dA*dG*dG*dG*dT*d[5mC]*d[5mC]*dT*kA*kA*k[5mC]) [Compound 1075211]”, the “YAP1 (% UTC)” value [5] is reported as 91 % UTC.
With “1074409 (antisense kG*kG*kA*dT*dT*dA*dA*dA*dG*dT*dA*dT*d[5mC]*kT*kT*kG) [Compound 1074409]” the “YAP1 (% UTC)” value [14] was 6 % UTC.
For “1075143 (antisense k[5mC]*k[5mC]*kT*dT*dA*dT*dT*dA*dG*dT*d[5mC]*dA*dG*kT*kT*k[5mC]) [Compound 1075143]”, the “YAP1 (% UTC)” value [1] was 2 % UTC.
For “1076549 (antisense kG*kT*kG*d[5mC]*dA*dA*dA*dA*dT*dA*d[5mC]*d[5mC]*dT*kT*kT*kG) [Compound 1076549]”, the “YAP1 (% UTC)” value [11] was 8 % UTC.
In the case of “1074212 (antisense kG*k[5mC]*kT*dT*d[5mC]*d[5mC]*dG*dG*dA*dG*d[5mC]*d[5mC]*dT*k[5mC]*kA*kT) [Compound 1074212]”, the “YAP1 (% UTC)” value [8] is reported as 53 % UTC.
With “1075691 (k[5mC]*kG*kT*d[5mC]*dA*dA*dA*dA*dT*dT*dA*dA*d[5mC]*kA*kG*kA; antisense) [Compound 1075691]” the “YAP1 (% UTC)” value [5] was 46 % UTC.
“716541 (antisense kT*kA*kA*dA*dG*dG*d[5mC]*dA*d[5mC]*dT*dA*d[5mC]*dA*kT*kT*kT) [Compound 716541]” was tested, and the “YAP1 (% UTC)” value [3] was 92 % UTC.
In the case of “1076297 (kT*kT*kA*dT*dA*dA*dA*dG*dA*d[5mC]*d[5mC]*d[5mC]*dA*kA*kT*kG; antisense) [Compound 1076297]”, the “YAP1 (% UTC)” value [14] is reported as 52 % UTC.
For “1075752 (k[5mC]*kA*kT*dA*dA*dT*dT*dA*dT*dA*d[5mC]*dT*dG*kA*kT*k[5mC]; antisense) [Compound 1075752]”, the “YAP1 (% UTC)” value [12] was 19 % UTC.
With “1075059 (antisense kA*kT*kT*dT*dA*d[5mC]*dT*dT*dT*dG*dG*dA*dT*kG*kT*k[5mC]) [compound 1075059]” the “YAP1 (% UTC)” value [9] was 11 % UTC.
For “1074449 (k[5mC]*kT*kA*dA*dT*dG*dA*dT*dA*dG*d[5mC]*dA*d[5mC]*kT*kA*kG; antisense) [compound 1074449]”, the “YAP1 (% UTC)” value [6] was 36 % UTC.
With “1076082 (kT*k[5mC]*kT*d[5mC]*dA*dA*dT*dA*d[5mC]*dA*d[5mC]*dT*dA*kT*kA*kT; antisense) [compound 1076082]” the “YAP1 (% UTC)” value [7] was 38 % UTC.
With “1074641 (antisense kG*kG*k[5mC]*d[5mC]*dA*dA*dA*dA*dT*dA*d[5mC]*dT*dT*kA*kG*kA) [compound 1074641]” the “YAP1 (% UTC)” value [6] was 107 % UTC.

Reference: patent US11214803B2, “Modulators of YAP1 expression” (Ionis Pharmaceuticals, Inc., priority 2019, dated 2022)
